Experimental findings from patent publication US10393755B2, “Compositions and methods for treating eye infections and disease” (UNIVERSITY OF VIRGINIA PATENT FOUNDATION, priority 2014, dated 2019) are described below.

No end group written: not given here.

Data set [1] concerns bacteria. The data set is described as follows: Lacritin inhibition (colony count) assay, bacterium not given. It is filed as cell-based. The settings on record: synthetic peptides. Here is the method: (§1) Bacterial Growth, SYTOX Green Assays, and on Column Cleavage—E. coli (ATCC (Manassas Va.) catalog no. 10536), S. epidermidis (ATCC catalog no. 12228), and P. aeruginosa (ATCC catalog no. 9027) were grown to mid-log phase in 50 ml of Luria-Bertani (LB) medium and washed three times in phosphate buffer containing 10 mM NaCl (pH 7.2; PB—NaCl) with centrifugation. Pellets were resuspended in 1 ml of PB—NaCl.
(§2) For lacritin inhibition assays, 50 ul of bacterial pellets each diluted 1:100 in PB—NaCl were incubated for 1.5 h (37° C.) with 100 ul of lacritin, lacritin truncations, or synthetic peptides at a final concentration of 0.1-6 uM. Mixtures were diluted 1:10 in PB—NaCl before plating 100 ul in quadruplicate on LB agar plates for overnight growth at 37° C. Colonies were manually counted. In other experiments, mid-log E. coli was treated at 37° C. for 0, 1, 2, or 3 h with 2 uM lacritin or lacritin truncations or with ampicillin (5 uM) or tetracycline (2 uM). After each treatment, 100 ul was centrifuged, resuspended in 1 ml of PB—NaCl, and plated (100 ul) onto LB agar for overnight growth (37° C.) and colony counting.

Data set [2] is classed as in vitro ADME, human. The method, then: A limitation of most synthetic peptide drugs is their protease sensitivity. […] Retropepsin would inactivate LACRIPEP, while cathepsin K would have no effect. However neither protease is found in normal human tears. Nonetheless, tears are rich in other proteases. We therefore incubated LACRIPEP in normal human tears at 37° C. for 2, 4, 6 and 16 hr. For immunoblotting, we first removed all endogenous lacritin by immunodepletion. […] (FIG. 6B).

For data set [3], the system named is HCE-T cells. Kind of data set: Viability (MTT) / cytoprotection of IFNG/TNF stressed cells. It is filed as cell-based, human. Conditions: for Cytoprotective activity of lacritin truncation and point mutants: 10 nM, IFNG/TNF stressed cells. The method, then:
Viability was monitored using the 3-(4,5-dimethyl[…])-2,5-diphenyltetrazolium bromide) (MTT) reduction assay (Invitrogen) or a Nucleocounter (New Brunswick Scientific, Edison, N.J.). Cells were seeded overnight in 24-well plates at a density of 500 cells/mm2 to give rise to ˜80% confluence the next day. Then cells were sensitized overnight in IFNG (100 units/ml) in α-MEM and treated in triplicate for 15 min with 10 nm lacritin or lacritin deletion or point mutants or with different lacritin doses in α-MEM together with TNF as described above.
Inclusion of inhibitors was simultaneous with the addition of lacritin or C-25 in all viability and other experiments except where otherwise noted. Inhibitors included PI103 (0.5 μm; EMD, Darmstadt, Germany), rapamycin (10 and 100 nm; EMD), and cyclosporin A (0.1 μm; EMD). One exception was 4-methylumbelliferyl-β-d-xylopyranoside (“xyloside”; 70 and 80 nm; Sigma), which was added during IFNG sensitization and during treatment with TNF and lacritin. The assay was completed by addition of MTT (5 mg/ml) to each well (at 37° C. for 4 h) followed by isopropanol with 0.04 n HCl and measurement at 570 nm using a reference wavelength of 630 nm. Viability was assayed in a Nucleocounter (New Brunswick Scientific).

Data set [4] has as its system P. aeruginosa. The data set is described as follows: Lacritin inhibition (colony count) assay, P. aeruginosa. It is filed as cell-based. Conditions: dose response studies; read-out: Half-maximal inhibition. Here is the method: as §1, §2
Data set [5] relates to E. coli. The data set is described as follows: Lacritin inhibition (colony count) assay, E. coli. It counts as cell-based. Conditions: dose response studies; read-out: Half-maximal inhibition. The method, then: as §1, §2
Data set [6] concerns HCE-T cells. The data set is described as follows: Lacritin accelerated autophagy and FOXO3 phosphorylation, inhibitors. It counts as cell-based, human. The method, then:
Lacritin targeting of corneal sensory neurons. Adrenergic α2C selective antagonist MK912 inhibits lacritin accelerated autophagy in HCE-T cells, as does the syndecan-1 inhibitor xyloside. […] Activity profiles of corneal neurons before, during and 1 hr during/after 10 μM lacritin reveal a small inhibition (from ˜12 to ˜8 spikes/s) follows immediately after the application of lacritin presumably due to α2 adrenergic receptor activation which inhibits TRPM8 channels. Removal of this inhibition after 1 hr of lacritin and washout causes an enhanced excitation of dry (from ˜20 to ˜23 spikes/s) and wet response (from ˜12 to ˜16 spikes/s).

Data set [7] is described as follows: Phase behavior and nanoparticle formation (optical density, DLS, TEM). It counts as physicochemical. Conditions: optical density. The method, then: The phase diagram for LSI fusion protein was characterized by optical density change at 350 nm as a function of solution temperature using a DU800 UV-Vis Spectrophotometer (Beckman Coulter, Brea, Calif.). Tt was defined at the point of the maximum first derivative. Self-assembly of nanoparticles was measured using dynamic light scattering (DLS) using a DynaPro-LSR Plate Reader (Wyatt Technology, Santa Barbara, Calif.). Light scattering data were collected at regular temperature intervals (1° C.) as solutions were heated from 5 to 50° C. The results were analyzed using a Rayleigh sphere model and fitted into a cumulant algorithm based on the sum-of-squares value.
The TEM imaging was carried out on a FEI Tecnai 12 TWIN microscope (Hillsboro, Oreg.) at 100 kV. Briefly, a 100 uM solution (5 uL) was initially deposited on a copper grid with carbon film (CF400-Cu, Election Microscopy Sciences, Hatfield, Pa.). After removing the excess amount of solution with filter paper, the samples were negatively stained with 2% uranyl acetate, followed by removing excess uranyl acetate after 30 s. b The samples were then dried under room temperature for at least 3 h before use in imaging.

For “Ac-KQFIENGSEFAQKLLKKFS-NH2 [N-94/C-6, KQFIENGSEFAQKLLKKFS]”, the “Bactericidal activity of synthetic peptides” value (“Bactericidal activity” for short) in data set [1] is reported as “slightly so”. The “Bactericidal activity” value in data set [1] (listed as SEQ ID NO: 5) is recorded as “substantially reduced the bactericidal activity”. In data set [2], the “Epitopes by immunoblotting after incubation in tears” value was “loses epitopes” and the “Stability relative to LACRIPEP” value was “not as stable”. For the same molecule, in data set [3] (generated synthetically), the “Activity of synthetic peptide relative to lacritin” value was “as potent as lacritin”. In the case of “AKAGKGMHGGVPGG (listed as Homo sapiens) [N-80/C-25]”, in data set [1], the “Colonies with synthetic peptides” value was “colonies were abundant”. FAQKLLKKFSLLKPWA [N-104]: in data set [1], the “Bactericidal activity” value is recorded as “fully active”. Further, the IC50 in data set [4] is 1000 to 1500 nM; in data set [5], about 1000 nM. With `CN1CC[C@]2(CCN3CCc4c(oc5ccccc45)[C@@H]3C2)N(C)C1=O` [MK912], in data set [6], the “Effect on lacritin stimulated FOXO3 phosphorylation” value was “inhibit”. The “Effect on lacritin accelerated autophagy” value in data set [6] (HCE-T cells) is “inhibits”. In the case of `Cc1cc(=O)oc2cc(O[C@@H]3OC[C@@H](O)[C@H](O)[C@H]3O)ccc12` [xyloside, 4-methylumbelliferyl-β-d-xylopyranoside], in data set [6], the “Effect on lacritin stimulated FOXO3 phosphorylation” value was “inhibit”. In addition, the “Effect on lacritin cytoprotective activity” value in data set [3] (cells cultured overnight in xyloside) is “completely abrogated”.

Consider “LKSIVEKSILLTEQALAKAGKGMH (listed as Homo sapiens) [N-64/C-31]”, for which the “Colonies with synthetic peptides” value in data set [1] was “colonies were abundant”.

Regarding “Ac-KQFIENGSEFAQKLLKKFSLLKPWA (N-terminus assumed) [LACRIPEP]”, the “Time stable in human tears (immunoblot)” value in data set [2] was “at least 16 hr”.

B1: I98S: lacritin point mutant (protein, UniProt Q9GZZ8 20-138, looked up, variant I98S)
Extracellular glycoprotein …: EDASSDSTGADPAQEAGTSKPNEEISGPAEPASPPETTTTAQETSAAAVQGTAKVTSSRQELNPLKSIVEKSILLTEQALAKAGKGMHGGVPGGKQFSENGSEFAQKLLKKFSLLKPWA
For the molecule B1, the “Cytoprotective activity of lacritin truncation and point mutants” value in data set [3] is listed as “significantly less active”.

B2: F104S: lacritin point mutant (protein, UniProt Q9GZZ8 20-138, looked up, variant F104S)
Extracellular glycoprotein …: EDASSDSTGADPAQEAGTSKPNEEISGPAEPASPPETTTTAQETSAAAVQGTAKVTSSRQELNPLKSIVEKSILLTEQALAKAGKGMHGGVPGGKQFIENGSESAQKLLKKFSLLKPWA
Regarding B2, the “Cytoprotective activity of lacritin truncation and point mutants” value in data set [3] is listed as “significantly less active”.

B3: F112S: lacritin point mutant (protein, UniProt Q9GZZ8 20-138, looked up, variant F112S)
Extracellular glycoprotein …: EDASSDSTGADPAQEAGTSKPNEEISGPAEPASPPETTTTAQETSAAAVQGTAKVTSSRQELNPLKSIVEKSILLTEQALAKAGKGMHGGVPGGKQFIENGSEFAQKLLKKSSLLKPWA
For the molecule B3, the “Cytoprotective activity of lacritin truncation and point mutants” value in data set [3] was “significantly less active”.

B4: L65S: lacritin point mutant (protein, UniProt Q9GZZ8 20-138, looked up, variant L65S)
Extracellular glycoprotein …: EDASSDSTGADPAQEAGTSKPNEEISGPAEPASPPETTTTAQETSAAAVQGTAKVTSSRQELNPSKSIVEKSILLTEQALAKAGKGMHGGVPGGKQFIENGSEFAQKLLKKFSLLKPWA
As for B4, the “Cytoprotective activity of lacritin truncation and point mutants” value in data set [3] was “unaffected”.

B5: L108S/L109S/F112S: lacritin triple point mutant (protein, UniProt Q9GZZ8 20-138, looked up, variant L108S L109S F112S)
Extracellular glycoprotein …: EDASSDSTGADPAQEAGTSKPNEEISGPAEPASPPETTTTAQETSAAAVQGTAKVTSSRQELNPLKSIVEKSILLTEQALAKAGKGMHGGVPGGKQFIENGSEFAQKSSKKSSLLKPWA
As for B5, the “Cytoprotective activity of lacritin truncation and point mutants” value in data set [3] is “significantly less active”.

B6: V69S: lacritin point mutant (protein, UniProt Q9GZZ8 20-138, looked up, variant V69S)
Extracellular glycoprotein …: EDASSDSTGADPAQEAGTSKPNEEISGPAEPASPPETTTTAQETSAAAVQGTAKVTSSRQELNPLKSISEKSILLTEQALAKAGKGMHGGVPGGKQFIENGSEFAQKLLKKFSLLKPWA
For B6, the “Cytoprotective activity of lacritin truncation and point mutants” value in data set [3] is “unaffected”.

B7: I73S: lacritin point mutant (protein, UniProt Q9GZZ8 20-138, looked up, variant I73S)
Extracellular glycoprotein …: EDASSDSTGADPAQEAGTSKPNEEISGPAEPASPPETTTTAQETSAAAVQGTAKVTSSRQELNPLKSIVEKSSLLTEQALAKAGKGMHGGVPGGKQFIENGSEFAQKLLKKFSLLKPWA
B7: the “Cytoprotective activity of lacritin truncation and point mutants” value in data set [3] is listed as “unaffected”.

B8: LS96: lacritin fused to soluble ELP (VPGSG)96; thermally nonresponsive control (protein)
chain: GEDASSDSTGADPAQEAGTSKPNEEISGPAEPASPPETTTTAQETSAAAVQGTAKVTSSRQELNPLKSIVEKSILLTEQALAKAGKGMHGGVPGGKQFIENGSEFAQKLLKKFSLLKPWAGLVPRGSGVPGSGY
modifications: ELP lacritin fusion construct; (129)..(133) the sequence VPGSG is directly repeated 96 times
notes: lacritin fused to soluble ELP (VPGSG)96; thermally nonresponsive control
In the case of B8, in data set [7], the “Phase transitions in phosphate buffered saline” value is given as “does not display any observable phase transitions”.
